{"source": "patent US10479979B2", "about": "“Method for making and using cold atmospheric plasma stimulated media for cancer treatment” (U.S. Patent Innovations, LLC, priority 2015, dated 2019)", "key": {"[1]": {"test_system": "MCF-7 cells", "test": "MTT cell viability of MCF-7 cells cultured 72 hours in test media", "format": "cell-based, Human", "procedure": "(§1) As a preliminary step, cancer cells are cultured overnight. For example, the cancer cells may be cultured in an incubator under the standard conditions (a 37° C., 5% (v/v) CO2 and humidified environment) for […]. MTT (3-(4,5-dimethylthiazol-2-yl)-2,5-diphenyltetrazolium bromide), a colorimetric assay (Sigma-Aldrich) was harnessed to qualify the cell viability. The initial media which had been used to culture cancer cells overnight may be discarded prior to treatment with CAPs media. […]\n(§2) For each cell line, the protocol was identical. […] Ultimately, according to the standard method, the viability of U87 cells were qualified by MTT test and were read by a H1 microplate reader (Hybrid Technology) at the absorbance of 570 nm.\n(§3) The protocols for three cell lines were identical. […] Ultimately, the cell viability was measured.\n(§4) The protocol for three cell lines was identical. […] Second, we respectively prepared 2.4 mM specific amino acids rich DMEM by dissolving specific quantities of amino acids powers (Sigma-Aldrich) in DMEM (1% ABS). […]"}, "[2]": {"test_system": "U87 cells", "test": "MTT cell viability of U87 cells cultured 72 hours in test media", "format": "cell-based, Human", "procedure": "as §1, §2, §3, §4"}, "[3]": {"conditions": "H2O2 in complete media, nominal 1-100 μM, 72 hours"}}}
{"smiles": "OO", "note": "[H2O2, hydrogen peroxide]", "values": [{"measurement": "resistance to H2O2 rich media", "setting": "[1]; [3]", "result": "stronger resistance to H2O2 than MDA-MB-231 cells"}, {"measurement": "resistance to H2O2 rich media", "setting": "[2]; [3]", "result": "stronger resistance to H2O2 than MDA-MB-231 cells"}]}
{"smiles": "N[C@@H](Cc1c[nH]c2ccccc12)C(=O)O", "note": "[tryptophan]", "values": [{"measurement": "growth of cancer cells in untreated amino acid rich DMEM (control group, toxicity)", "setting": "[1]; 2.4 mM, no CAP treatment", "result": "strong resistance to growth of cancer cells"}, {"measurement": "growth of cancer cells in untreated amino acid rich DMEM (control group, toxicity)", "setting": "[2]; 2.4 mM, no CAP treatment", "result": "strong resistance to growth of cancer cells"}]}
